From patent US8569011B2, “Fluorescent derivatives of polyamines, method for preparing same and applications thereof as diagnosis tools in the treatment of cancerous tumors” (Pierre Fabre Medicament, priority 2007, dated 2013)

Experiments:
[1] = test system: KG-1; assay: Cytotoxicity, residual ATP (ATPlite kit), 72 hours, KG-1; type: cell-based; details: Homo sapiens, KG-1 leukemic line, 72 hours incubation
Experimental: (§1) An anticancer compound is used, a derivative of epipodophyllotoxin, whose intracellular penetration is dependent on the polyamine transporter, such as the compound described in example 27 of patent application WO 2005/100363 and, as reference compound, etoposide which is a non-vectored epipodophyllotoxin. These two compounds have the same mechanism of action on cancer cells: they are both inhibitors of topoisomerase 2.
(§2) A panel of leukemic lines was assayed to ascertain probe incorporation, here the one described in example 1, regarding the sensitivity to a vectored agent such as the compound in example 27 of patent application WO 2005/100363 and by comparison with non-vectored etoposide. After an incubation time of 72 hours with the compound of example 27 in patent application WO 2005/100363 or with etoposide, cytotoxicity was evaluated using the ATPlite kit. Cells from the same line were also incubated in the presence of the probe described in example 1, and were analyzed by flow cytometry. Fluorescence intensity measured at 525 nm was followed from 0 to 1 hour 30 minutes and the slope of intensity variation was calculated.

[2] = test system: CEM; assay: Cytotoxicity, residual ATP (ATPlite kit), 72 hours, CEM; type: cell-based; details: Homo sapiens, CCRF-CEM, CEM leukemic line, 72 hours incubation
Experimental: as §1, §2

[3] = test system: BLUE-1; assay: Cytotoxicity, residual ATP (ATPlite kit), 72 hours, BLUE-1; type: cell-based; details: BLUE-1 leukemic line, 72 hours incubation
Experimental: as §1, §2

[4] = test system: U-937; assay: Cytotoxicity, residual ATP (ATPlite kit), 72 hours, U-937; type: cell-based; details: Homo sapiens, U-937 leukemic line, 72 hours incubation
Experimental: as §1, §2

[5] = test system: BL-41; assay: Cytotoxicity, residual ATP (ATPlite kit), 72 hours, BL-41; type: cell-based; details: Homo sapiens, BL-41 leukemic line, 72 hours incubation
Experimental: as §1, §2

[6] = test system: CEM; assay: Fluorescent probe incorporation (polyamine transport activity) by flow cytometry, CEM; type: cell-based; details: (cell intensity with probe presence) - (cell intensity without probe presence), emission 525 nm
Experimental: (§3) Cells taken from biopsies are mechanically separated with or without the presence of trypsin depending on the constitution of the tissue under consideration. The haematopoietic cells are separated and isolated following conventional preparation methods for blood cells. Once isolated after a fairly short time to ensure the viability of the cells being examined, the cells are placed in the presence of the probe such as synthesized in examples 1 to 3 for example, and left to incubate in the recommended culture medium for the tissue under consideration in the presence of aminoguanidine. Aminoguanidine is used to prevent in vitro denaturating of the polyamines. […] An incubation time of one to four hours is sufficient and allows detection of fluorescence by immunochemistry or flow cytometry, by choosing excitation and emission wavelengths compatible with the substituent of the fluorescent probe. This analysis is conducted by flow cytometry or histochemistry following standard methodology in the study described below, by exciting the probe obtained in example 1, N-(3-aminopropyl)-N′-{3-[methyl-(7-nitrobenzo[1,2,5]oxadiazol-4-yl)-amino]-propyl}-butane-1,4-diamine with a 488 nm source and measuring fluorescence emission at 525 nm. […]
(§4) For all the assayed lines, the capacity to incorporate the fluorescent probe, characterized by the fluorescence measured by flow cytometry, was also measured.

[7] = test system: BLUE-1; assay: Fluorescent probe incorporation (polyamine transport activity) by flow cytometry, BLUE-1; type: cell-based; details: (cell intensity with probe presence) - (cell intensity without probe presence), emission 525 nm
Experimental: as §3, §4

[8] = test system: A549 cells; assay: Selectivity of the probes vis-a-vis tumor cells: probe incorporation in A549 cells compared with MRC-5 cells; type: cell-based, human
Experimental: as §3

[9] = test system: BL-41; assay: Fluorescent probe incorporation (polyamine transport activity) by flow cytometry, BL-41; type: cell-based; details: (cell intensity with probe presence) - (cell intensity without probe presence), emission 525 nm
Experimental: as §3, §4

[10] = test system: U-937; assay: Fluorescent probe incorporation (polyamine transport activity) by flow cytometry, U-937; type: cell-based; details: (cell intensity with probe presence) - (cell intensity without probe presence), emission 525 nm
Experimental: as §3, §4

[11] = test system: KG-1; assay: Fluorescent probe incorporation (polyamine transport activity) by flow cytometry, KG-1; type: cell-based; details: (cell intensity with probe presence) - (cell intensity without probe presence), emission 525 nm
Experimental: as §3, §4

| Structure (SMILES) | IC50 [1] [nM] | IC50 [2] [nM] | IC50 [3] [nM] | IC50 [4] [nM] | IC50 [5] [nM] | Polyamine transport activity [6] | Polyamine transport activity [7] | Incorporation differential tumoral cells versus healthy cells ([8]; flow cytometry, A549 vs MRC-5) | Incorporation of the probe in tumoral cells versus cells from healthy tissue ([8]; fluorescence microscope, slide cultured cells, A549 (FIG. 1A) vs MRC-5 healthy lung (FIG. 1B), excitation 488 nm, emission 525 nm) | Polyamine transport activity [9] | Polyamine transport activity [10] | Polyamine transport activity [11] |
| --- | --- | --- | --- | --- | --- | --- | --- | --- | --- | --- | --- | --- |
| COc1cc([C@@H]2c3cc4c(cc3[C@@H](O[C@@H]3O[C@@H]5CO[C@@H](C)O[C@H]5[C@H](O)[C@H]3O)[C@H]3COC(=O)[C@H]23)OCO4)cc(OC)c1O [Etoposide, etoposide] | 5000 | 60 | 1000 | 400 | 400 | – | – | – | – | – | – | – |
| CN(CCCNCCCCNCCCN)c1ccc([N+](=O)[O-])c2nonc12 [Example 1, N-(3-aminopropyl)-N′-{3-(methyl-(7-nitrobenzo[1,2,5]oxadiazol-4-yl)-amino)-propyl}-butane-1,4-diamine] | – | – | – | – | – | 421 Arbitrary Unit of fluorescence | 58 Arbitrary Unit of fluorescence | confirmed by flow cytometry | much greater incorporation | 164 Arbitrary Unit of fluorescence | 33 Arbitrary Unit of fluorescence | 17 Arbitrary Unit of fluorescence |
